These results are taken from BindingDB's records for doi:10.1021/jm981008a (1998).

The target of test [1] is Sodium-dependent serotonin transporter (Homo sapiens, UniProt P31645). Nature of the test: The compound was tested in vitro for binding affinity for the serotonin transporter (5-HTT) using competitive binding assay.
Test [2] addresses T1, Sodium-dependent dopamine transporter (Homo sapiens, UniProt Q01959). Nature of the test: The compound was tested in vitro for high binding affinity for the Dopamine transporter (DAT) using competitive binding assay.
Test [3] has as its target T1, Sodium-dependent dopamine transporter. Briefly: The compound was tested in vitro for low binding affinity for the Dopamine transporter (DAT) using competitive binding assay.
Test [4] deals with Sodium-dependent noradrenaline transporter (Homo sapiens, UniProt P23975). Briefly: The compound was tested in vitro for binding affinity for the norepinephrine transporter (NET) using competitive binding assay.
Sodium-dependent noradrenaline transporter, sequence (P23975 whole entry): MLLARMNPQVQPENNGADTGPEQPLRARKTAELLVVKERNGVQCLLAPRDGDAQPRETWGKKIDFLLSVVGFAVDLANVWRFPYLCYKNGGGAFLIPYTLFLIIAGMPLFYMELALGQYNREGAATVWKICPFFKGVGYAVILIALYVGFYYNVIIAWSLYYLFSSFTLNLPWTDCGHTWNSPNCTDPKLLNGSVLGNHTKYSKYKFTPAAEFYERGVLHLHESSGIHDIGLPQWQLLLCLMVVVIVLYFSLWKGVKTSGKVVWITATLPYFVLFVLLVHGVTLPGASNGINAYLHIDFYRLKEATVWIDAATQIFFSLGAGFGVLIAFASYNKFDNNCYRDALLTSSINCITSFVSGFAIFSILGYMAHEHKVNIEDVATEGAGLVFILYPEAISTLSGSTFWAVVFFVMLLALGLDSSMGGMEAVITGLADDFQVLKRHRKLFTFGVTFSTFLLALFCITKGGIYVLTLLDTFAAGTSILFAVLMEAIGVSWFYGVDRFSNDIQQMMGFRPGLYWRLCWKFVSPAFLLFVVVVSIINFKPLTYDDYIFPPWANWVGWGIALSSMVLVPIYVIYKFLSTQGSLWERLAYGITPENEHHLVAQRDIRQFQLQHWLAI

T1 sequence (Q01959 whole entry): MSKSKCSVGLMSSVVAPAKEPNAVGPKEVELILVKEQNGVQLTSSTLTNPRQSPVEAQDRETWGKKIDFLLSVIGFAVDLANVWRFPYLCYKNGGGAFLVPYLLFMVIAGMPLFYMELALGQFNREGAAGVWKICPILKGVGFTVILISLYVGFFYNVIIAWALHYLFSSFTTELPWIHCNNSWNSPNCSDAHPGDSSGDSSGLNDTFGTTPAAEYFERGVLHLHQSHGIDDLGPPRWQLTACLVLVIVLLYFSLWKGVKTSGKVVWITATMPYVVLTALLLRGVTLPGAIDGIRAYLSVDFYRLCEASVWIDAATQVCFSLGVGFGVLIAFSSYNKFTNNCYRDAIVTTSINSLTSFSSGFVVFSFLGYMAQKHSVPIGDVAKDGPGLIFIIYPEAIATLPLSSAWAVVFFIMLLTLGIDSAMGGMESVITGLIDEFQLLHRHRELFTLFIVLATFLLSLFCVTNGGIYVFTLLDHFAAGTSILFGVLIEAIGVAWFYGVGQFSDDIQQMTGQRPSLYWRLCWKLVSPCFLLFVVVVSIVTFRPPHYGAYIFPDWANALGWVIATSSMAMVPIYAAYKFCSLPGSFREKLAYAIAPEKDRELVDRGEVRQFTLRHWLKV
Sodium-dependent serotonin transporter, sequence (P31645 whole entry): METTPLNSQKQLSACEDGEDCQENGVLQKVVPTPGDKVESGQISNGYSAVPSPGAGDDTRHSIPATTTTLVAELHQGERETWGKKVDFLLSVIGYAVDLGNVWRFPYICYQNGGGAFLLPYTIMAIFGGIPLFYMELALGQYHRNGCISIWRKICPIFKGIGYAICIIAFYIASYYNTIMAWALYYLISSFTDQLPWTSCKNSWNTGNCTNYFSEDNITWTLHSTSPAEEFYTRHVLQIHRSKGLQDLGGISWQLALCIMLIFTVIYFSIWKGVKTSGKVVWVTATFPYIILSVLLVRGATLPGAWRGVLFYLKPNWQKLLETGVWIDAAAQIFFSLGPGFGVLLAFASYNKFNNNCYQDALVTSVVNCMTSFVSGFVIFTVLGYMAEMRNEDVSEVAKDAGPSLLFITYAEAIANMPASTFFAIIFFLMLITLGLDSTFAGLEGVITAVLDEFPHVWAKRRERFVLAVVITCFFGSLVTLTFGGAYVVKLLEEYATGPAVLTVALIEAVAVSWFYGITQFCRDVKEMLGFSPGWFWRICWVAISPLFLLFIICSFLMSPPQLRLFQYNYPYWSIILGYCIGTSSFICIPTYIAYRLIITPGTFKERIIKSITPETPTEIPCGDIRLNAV

For the compound `CN1C2CCC1[C@@H](COC(=O)CC[S+]1CC[S+](C)[Re]1([Br])([CH]=O)([CH]=O)[CH]=O)[C@@H](c1ccc(F)cc1)C2` (some centres undefined) [Rhenium complex of 3-(2-Bromo-2,2,2-triformyl-3-methyl-1lambda*4*,2lambda*6*,3lambda*4*-[1,2,3]dithiolan-1-yl)-propionic acid 3-(4-fluoro-phenyl)-8-methyl-8-aza-bicyclo[3.2.1]oct-2-ylmethyl ester], the IC50 in test [1] was determined as 0.072 µM; in test [2], 0.000146 µM; in test [3], 0.02 µM; in test [4] it was 0.0073 µM.
